According to patent US20250049812A1, “Compounds that Inhibit Necroptosis and Their Preparation Methods” (SHANGHAI INSTITUTE OF ORGANIC CHEMISTRY, CHINESE ACADEMY OF …, priority 2021, published 2025):
Where two headings read alike, the source gives them in different places.

Legend:
RIPK1 = target: T1, RIPK1 (Homo sapiens, UniProt Q13546); assay: RIPK1 activity inhibition test (NANOSYN); type: biochemical; settings: 12 concentrations, threefold dilution, 1% DMSO
T1 sequence (Q13546 1-671): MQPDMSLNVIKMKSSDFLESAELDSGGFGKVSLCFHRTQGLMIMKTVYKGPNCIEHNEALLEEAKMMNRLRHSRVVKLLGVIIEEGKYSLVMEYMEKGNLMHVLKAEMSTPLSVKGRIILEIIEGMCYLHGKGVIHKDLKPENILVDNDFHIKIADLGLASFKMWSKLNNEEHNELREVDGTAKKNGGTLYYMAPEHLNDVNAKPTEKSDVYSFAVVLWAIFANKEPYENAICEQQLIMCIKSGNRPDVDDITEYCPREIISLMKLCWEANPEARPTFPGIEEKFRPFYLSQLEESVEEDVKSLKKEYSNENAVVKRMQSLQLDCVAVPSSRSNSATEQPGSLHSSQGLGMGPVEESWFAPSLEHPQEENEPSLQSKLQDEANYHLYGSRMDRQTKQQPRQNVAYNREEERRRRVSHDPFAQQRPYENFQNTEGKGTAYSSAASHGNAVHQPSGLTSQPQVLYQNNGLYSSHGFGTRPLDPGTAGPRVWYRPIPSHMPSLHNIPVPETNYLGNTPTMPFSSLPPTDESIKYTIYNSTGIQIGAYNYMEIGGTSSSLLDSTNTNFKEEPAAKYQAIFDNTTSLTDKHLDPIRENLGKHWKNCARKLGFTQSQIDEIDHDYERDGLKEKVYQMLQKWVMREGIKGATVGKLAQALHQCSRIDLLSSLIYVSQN
Description: The test compounds were dissolved in DMSO, with the highest concentration being […]. Subsequently, the concentrations were serially diluted threefold, with the DMSO concentration in the test medium maintained at 1%. IC50 values were calculated from data generated prom 12 tested concentrations.

Jurkat FADD (−/−) Cells = assay: TNF-α induced necroptosis of Jurkat FADD-deficient cells (CellTiter-Glo cell survival); type: cell-based, human; settings: TNF-α induced necroptosis, Jurkat FADD-deficient cells, 13 hours, CellTiter-Glo, read-out: IC50
In short: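 Cells in RPMI 1640 with 10% FBS were pretreated for 1 h at 37 °C with compound (12-point threefold series from 25 μM, or 0.5 μM, in triplicate). They were then stimulated with TNFα added as a 5 ng/mL solution for 13 h. Survival was read by luminescence.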

[1] = Study of oral pharmacokinetics in rats; settings: rat, in vivo, male SD rats, p.o.; for bioavailability: i.v. 1 mg/kg; for AUC(0-t): read-out: AUC0-8
Description: Healthy male SD rats were used as experimental animals. The intragastric (p.o.) administration was performed, with a dosage of 5 mg/kg or 15 mg/kg. Preparation: the compound was dissolved in a formulation made of 1% tween 80, 1% HMPC, and 98% water. The mixture was ground and shaken until the compound was uniformly distributed with a small particle size, and then 1 equivalent of methanesulfonic acid was added. The intravenous administration was performed with a dosage of 1 mg/kg. Preparation: 5% DMSO, 10% EtOH, 10% sulotol, and 75% physiological saline was added to the compound, and mixed well. Samples were taken at 5 minutes, 15 minutes, 30 minutes, 1 hour, 2 hours, 4 hours, 6 hours, and 8 hours after administration, and then the samples were analyzed using liquid chromatography tandem mass spectrometry (LC-MS/MS).

| Molecule | IC50 (RIPK1) [nM] | IC50 (Jurkat FADD (−/−) Cells; Homo sapiens) [nM] | Cmax ([1]; 5 mg/kg) [ng/mL] | Tmax ([1]; 5 mg/kg) [h] | half-life ([1]; 5 mg/kg) [h] | bioavailability ([1]; 5 mg/kg) [%] | AUC(0-t) ([1]; 5 mg/kg) [ng·h/mL] | also measured |
| --- | --- | --- | --- | --- | --- | --- | --- | --- |
| CN1C(=O)C(NC(=O)c2nnc(Cc3ccccc3)[nH]2)Cn2cc(-c3ccnn3C)c3cccc1c32 (racemic) [T-16, (±)-5-benzyl-N-(1-methyl-7-(1-methyl-1H-pyrazol-5-yl)-2-oxy-1,2,3,4-tetrahydro-[1,4]diazepino [3,2,1-hi]indol-3-yl)-4H-1,2,4-triazole-3-carboxamide] | 47.8 | < 10 |  |  |  |  |  |  |
| CN1C(=O)C(NC(=O)c2nnc(Cc3ccccc3)[nH]2)Cc2cn(-c3cnn(C)c3)c3cccc1c23 (racemic) [T-34, (±)-5-benzyl-N-(1-methyl-6-(1-methyl-1H-pyrazol-4-yl)-2-oxo-2,3,4,6-tetrahydro-1H-azacyclo [4,3,2-cd]indol-3-yl)-4H-1,2,4-triazole-3-carboxamide] | 50.4 | < 10 |  |  |  |  |  |  |
| CN1C(=O)C(NC(=O)c2nnc(Cc3ccccc3)[nH]2)Cc2cn(-c3ncccc3C(F)(F)F)c3cccc1c23 (racemic) [T-40, (±)-5-benzyl-N-(1-methyl-2-oxo-6-(3-(trifluoromethyl)pyridin-2-yl)-2,3,4,6-tetrahydro-1H-azacyclo [4,3,2-cd]indol-3-yl)-4H-1,2,4-triazole-3-carboxamide] |  | < 10 | 2230 | 1 | 3.26 | 31.4 | 9040 |  |
| CN1C(=O)[C@@H](NC(=O)c2nnc(Cc3ccccc3)[nH]2)Cc2cn(-c3ncccc3C(F)(F)F)c3cccc1c23 [T-96, (S)-5-benzyl-N-(1-methyl-2-oxo-6-(3-(trifluoromethyl)pyridin-2-yl)-2,3,4,6-tetrahydro-1H-azacyclo [4,3,2-cd]indol-3-yl)-4H-1,2,4-triazole-3-carboxamide] | 15.2 | < 10 | 1270 | 1 | 3.76 | 28.2 | 4900 |  |
| CN1C(=O)[C@@H](NC(=O)c2nnc(Cc3ccccc3)[nH]2)Cc2cn(-c3ncccc3OC(F)F)c3cccc1c23 [T-112, (S)-5-benzyl-N-(6-(3-(difluoromethoxy)pyridin-2-yl)-1-methyl-2-oxo-2,3,4,6-tetrahydro-1H-aza [4,3,2-cd]indol-3-yl)-4H-1,2,4-triazole-3-carboxamide] | 28.3 | < 10 | 494 | 0.75 | 1.99 | 18.3 | 1700 | Cmax ([1]; 15 mg/kg): 3930 ng/mL; Tmax ([1]; 15 mg/kg): 1.5 h; half-life ([1]; 15 mg/kg): 1.91 h; bioavailability ([1]; 15 mg/kg): 57.1%; AUC(0-t) ([1]; 15 mg/kg): 15900 ng·h/mL |
| CN1C(=O)[C@@H](NC(=O)c2nnc(Cc3ccccc3)[nH]2)Cn2cc(-c3cn(C)nc3C(F)(F)F)c3cccc1c32 [T-118, (S)-5-benzyl-N-(1-methyl-7-(1-methyl-3-(trifluoromethyl)-1H-pyrazol-4-yl)-2-oxo-1,2,3,4-tetrahydro-[1,4]diazepine [3,2,1-hi]indol-3-yl)-4H-1,2,4-triazole-3-carboxamide] | 24.9 | < 10 |  |  |  |  |  |  |
| CN1C(=O)[C@@H](NC(=O)c2ncc(Cc3ccccc3)o2)Cn2cc(-c3cn(C)nc3C(F)(F)F)c3cccc1c32 [T-127, (S)-5-benzyl-N-(1-methyl-7-(1-methyl-3-(trifluoromethyl)-1H-pyrazol-4-yl)-2-oxo-1,2,3,4-tetrahydro-[1,4]diazepine [3,2,1-hi]indol-3-yl)oxazole-2-carboxamide] |  | < 10 |  |  |  |  |  |  |
| (±)-5-(3-(5-benzyl-4H-1,2,4-triazole-3-carboxamido)-1-methyl-2-oxo-1,2,3,4-tetrahydro-6H-azacyclo [4,3,2-cd] indol-6-yl)oxazole-4-carboxylate [T-98] |  |  |  |  |  |  |  | IC50 (Jurkat FADD (−/−) Cells): < 10 nM |
